The text below walks through data of patent US8598157B2, “5-alkynyl-pyridines” (Boehringer Ingelheim International GmbH, priority 2011, dated 2013).

Structures are written as SMILES. pEC50, pIC50: −log10 of the molar value.

One experiment deals with MB453 cells. The experiment can be described thus: alamarBlue MB453 cell assay (antiproliferative/cytotoxicity). The experiment is classed as cell-based. As to conditions: Homo sapiens; MDA MB 453 breast cancer cell line. An excerpt:
(§1) The H460, MB453, U87, MCF7 and BT474 alamarBlue cell assays provide EC50 values indicative of the antiproliferative or cytotoxic effects of the compounds to respectively the H460 (human non small cell line cancer), MB-453 (breast cancer cell line), U87 (glioblastoma cell line), MCF7 (breast cancer cell line) and BT474 (breast cancer cell line). As known in the field, antiproliferative or cytotoxic effect against this cell lines would be expected to be indicative of activity in treating lung, breast and brain cancers. See R. Marone R et al. Biochim. Biophys. Acta. 2008 January; 1784(1):159-85. S. Yaguchi et al., J. Natl. Cancer Inst. 2006 Apr. 19; 98(8):545-56.
(§2) Method Type: Antiproliferative/Cytotoxicity
(§3) alamarBlue® is designed to provide a rapid and sensitive measure of cell proliferation and cytotoxicity in various human and animal cell lines. The assay is based on the reduction of alamarBlue in the reducing environment of living (metabolically active) cells. In the presence of added cytotoxic or antiproliferative compounds, the innate metabolic activity ceases.
(§4) AlamarBlue is soluble and stable in culture medium. Measurements are made fluorometrically by exciting at 530-560 nm and measuring emission at 590 nm. In reporting percent alamarBlue reduction by monitoring fluorescence, data are expressed as fluorescence emission intensity units as a function of time of incubation.
(§5) 3. Equipment • 96-well plates, flat bottom (Falcon, Cat. No.: 353072) • 96-well plates, U-shaped (Costar, Cat. No.: 3799) • CO2-Incubator • Microplate Reader, Spectramax Plus, Molecular Devices 4. Typical Procedure • Day 0: Seed 3000 BT-474 cells (IMDM/5% FCS, 1% NEAA, 1% Sodiumpyruvat) in 150 μl medium into a 96-well plate, flat bottom (include mediumblank). Incubate plates at 37° C. in a CO2 incubator overnight. • Day 1: Dilute compounds to a concentration 40 μM->1:3 in medium, 10 dilution steps, in 96-well plates. • Add 50 μl per well of each dilution (total volume per well 200 μl; final conc. of cpds: 10 μM->1:3). If required, test further dilutions. • All concentrations are tested in duplicates. • Controls: Cells w/o cpd. (+50 μl medium/DMSO). • Cells are incubated with compounds for 5-6 days. • Day 6 or 7: Add 25 μl of alamarBlue solution to each well and incubate for 8 hours at 37° C. Measure fluorescence by exciting at 530-560 nm and measuring emission at 590 nm. 5. Evaluation • Subtract average value for medium blank from sample readings • Calculate EC50 using GraphPad Prism (Fifty)
For orientation: Resazurin is reduced to fluorescent resorufin, in cell work by metabolically active cells.

The subject of the next experiment is BT474 cells. The experiment in a line: alamarBlue BT474 cell assay (antiproliferative/cytotoxicity). The experiment is classed as cell-based. As to conditions: BT-474 human breast cancer cell line.
Text: as §1, §2, §3, §4, §5

For another experiment, the target named is PI3Kalpha (Homo sapiens (Human), UniProt P42336). The experiment in a line: Inhibition of PI3Kalpha-induced PIP-2 phosphorylation (filter-binding assay). As to conditions: 33P-ATP, p85alpha/His-p110alpha, read-out: IC50 PI3Kα. The experiment is classed as biochemical. The text has this: Inhibition of PI3Kalpha-Induced PIP-2 Phosphorylation
This PI3Kalpha assay provides an IC50 value indicative of the activity of the compounds to inhibit PI3 kinase alpha activity. Inhibition of PI3 kinase would be expected to be indicative of activity in treating conditions of excessive or anomalous cell proliferation, such as cancers. See also J. A. Engelman, Nature Reviews Cancer, 2009, 9, 550-562; A. Carnero, Expert Opin. Investig. Drugs, 2009, 18, 1265-1277 and P. Liu et al., Nature Reviews Drug Discovery, 2009, 8, 627-64.
Method Type: Filter-Binding-Assay
Aliquoted in desired amounts and stored at −80° C. Final assay concentration 25 ng/well • Phosphotyrosin PDGFRbeta-peptide H-CGG-pY-[…]-pY-VPMLDM-NH2 was synthesized by Jerini Peptide Technologies (JPT) and used in a final conc. of 1.7 μM (stock 100 μM prepared in Assay buffer with DTT, aliquoted in desired amounts and stored at −80° C.) • Cold ATP (from Sigma; A-7699), 100 μM stock solution in H2O, use 1 μM final concentration in assay • [33P]-ATP, 370 MBq/ml from Amersham (#AH9968), use 0.5 μCi/well (10 mCi/ml) • Clear 96-well plates from Greiner (#655 162) • Filter plates: Perkin Elmer UniFilter GF/B #6005177 • Microscint 0 (from Perkin Elmer, #6013611) 2. Assay Procedure
The substrate-containing lipid vesicles are dissolved to a concentration of 0.637 mg lipid blend/ml assay buffer (with BSA, freshly added) in 50 ml Falcon->keep on ice, followed by ultrasonication (pulse of 15 sec followed by a pause of 10 sec, 4×). Compounds are serially diluted in assay buffer+6% DMSO and […] of each dilution is added per well of a 96-well plate (compounds are tested in duplicates) and mixed with 30 μl of the lipid vesicles containing PDGFR-Peptide ([…]) and PI3K alpha (25 ng/well final). The mixture is then incubated for 20 minutes at room temperature. Subsequently, 20 μl of assay buffer containing […] cold ATP and 0.5 μCi/20 μl 33P-ATP are added. The plates are then incubated at room temperature for 120 minutes (shaking with 300 rpm).
The reaction mix is transferred onto filter plates using “filtermate harvester” from Packard: filter plates are rinsed with PBS, then the reaction mix is filtered onto the filter plate, washed 5 times with PBS and are allowed to dry for 30-60 minutes at 50° C.
The plate bottom is sealed with Perkin Elmer white adhesive foil and 25 μl/well Microscint( ) are added, the top is covered with transparent adhesive foil and the plate is measured with Wallac Trilux 1450 Microbeta Counter.
As positive control serve wells containing vehicle controls (1% DMSO in assay buffer), showing non-inhibited kinase activity (high values). Wells containing assay buffer instead of enzyme can serve as control for background activity (low values).
Calculate IC50 values using the Smiley program (based on GrapPad Prism)

A further experiment relates to MCF7 cells. The experiment can be described thus: alamarBlue MCF7 cell assay (antiproliferative/cytotoxicity). As to conditions: MCF7 human breast cancer cell line. The experiment is classed as cell-based.
Text: as §1, §2, §3, §4, §5

A further experiment concerns U87 cells. The experiment can be described thus: U87 cell assay (antiproliferative/cytotoxicity). The experiment is classed as cell-based. As to conditions: U-87MG human glioblastoma cells.
Text: as §1, §2, §3, §4, §5

For a further experiment, the system named is H460 cells. The experiment in a line: alamarBlue H460 cell assay (antiproliferative/cytotoxicity). The experiment is classed as cell-based. As to conditions: NCI-H460; H460 human lung carcinoma cells.
Text: as §1, §2, §3, §4, §5

PI3Kalpha, sequence (P42336 whole entry): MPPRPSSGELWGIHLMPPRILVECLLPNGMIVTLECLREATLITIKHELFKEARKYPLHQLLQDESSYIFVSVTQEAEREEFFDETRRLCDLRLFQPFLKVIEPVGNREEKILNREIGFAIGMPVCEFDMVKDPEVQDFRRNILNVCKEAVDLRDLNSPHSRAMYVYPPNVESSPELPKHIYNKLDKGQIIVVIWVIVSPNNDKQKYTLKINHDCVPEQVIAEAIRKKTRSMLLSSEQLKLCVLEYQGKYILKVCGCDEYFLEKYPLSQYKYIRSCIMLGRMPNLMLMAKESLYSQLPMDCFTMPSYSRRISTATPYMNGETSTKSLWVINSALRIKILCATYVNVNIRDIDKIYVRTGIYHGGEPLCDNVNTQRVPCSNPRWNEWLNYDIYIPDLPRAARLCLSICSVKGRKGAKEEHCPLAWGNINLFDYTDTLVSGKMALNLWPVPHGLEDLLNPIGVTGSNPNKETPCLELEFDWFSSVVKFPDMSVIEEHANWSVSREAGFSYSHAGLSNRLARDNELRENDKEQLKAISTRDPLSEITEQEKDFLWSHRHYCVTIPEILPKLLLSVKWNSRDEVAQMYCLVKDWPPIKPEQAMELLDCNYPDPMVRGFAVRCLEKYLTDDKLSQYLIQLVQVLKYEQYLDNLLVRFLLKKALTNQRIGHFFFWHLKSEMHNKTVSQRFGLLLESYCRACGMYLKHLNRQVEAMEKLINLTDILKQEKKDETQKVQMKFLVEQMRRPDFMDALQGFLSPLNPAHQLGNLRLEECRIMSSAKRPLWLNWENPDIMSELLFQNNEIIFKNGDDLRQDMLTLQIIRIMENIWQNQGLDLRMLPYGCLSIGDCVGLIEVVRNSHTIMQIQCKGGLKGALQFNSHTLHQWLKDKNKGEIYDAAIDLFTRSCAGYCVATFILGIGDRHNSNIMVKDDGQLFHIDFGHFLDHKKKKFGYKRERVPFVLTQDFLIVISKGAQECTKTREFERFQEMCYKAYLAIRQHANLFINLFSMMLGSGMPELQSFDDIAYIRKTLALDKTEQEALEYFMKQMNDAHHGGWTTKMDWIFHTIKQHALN

Take `CC(=O)N1CCCN(c2ncnc(C)c2C#Cc2cnc(C)c(NS(=O)(=O)c3ccccc3)c2)CC1` [Example I-62, N-{5-[4-(4-Acetyl-[1,4]diazepan-1-yl)-6-methyl-pyrimidin-5-ylethynyl]-2-methyl-pyridin-3-yl}-benzenesulfonamide]: the negative-log EC50 (pEC50) (commonly −log10 of the EC50, conventionally taken in molar units) in the experiment on MB453 cells is 6.01; with BT474 cells, 5.39; in the experiment on MCF7 cells it was 6.15; in the experiment on U87 cells, 5.89; with H460 cells, 5.76. Moreover, the negative-log IC50 (pIC50) (in general, the negative decadic logarithm of the IC50, by convention in mol/L) on PI3Kalpha is 8.52.
Consider `Cc1ncc(C#Cc2c(C)ncnc2N2CCOCC2)cc1NS(=O)(=O)c1cc(F)cc(F)c1` [Example I-31, 3,5-Difluoro-N-[2-methyl-5-(4-methyl-6-morpholin-4-yl-pyrimidin-5-ylethynyl)-pyridin-3-yl]-benzenesulfonamide], for which the pEC50 was 6.61 in the experiment with MB453 cells; 6.75 with BT474 cells; 7.30 in the experiment with MCF7 cells; 6.22 with U87 cells; 6.29 with H460 cells. Also, the negative logarithm of the IC50 (pIC50) at PI3Kalpha was 9.01.
For the compound `Cc1ncc(C#Cc2c(C)ncnc2N2CCOCC2)cc1NS(=O)(=O)c1ccc(Cl)s1` [Example I-52, 5-Chloro-thiophene-2-sulfonic acid [2-methyl-5-(4-methyl-6-morpholin-4-yl-pyrimidin-5-ylethynyl)-pyridin-3-yl]-amide], the pEC50 in the experiment with MB453 cells is 6.53; in the experiment on BT474 cells, 6.65; in the experiment on MCF7 cells it was 7.41; with U87 cells, 6.35; with H460 cells it was 6.56. For the same compound, the negative logarithm of the IC50 (pIC50) on PI3Kalpha is 9.33.
On to `CCc1ncnc(N(C)C)c1C#Cc1cnc(C)c(NS(=O)(=O)c2ccc(F)cc2)c1` [Example I-27, N-[5-(4-Dimethylamino-6-ethyl-pyrimidin-5-ylethynyl)-2-methyl-pyridin-3-yl]-4-fluoro-benzenesulfonamide], for which the pEC50 in the experiment with MB453 cells is 5.91; in the experiment with BT474 cells, 5.00; in the experiment with MCF7 cells it was 5.00; with U87 cells it was 5.79; in the experiment with H460 cells, 6.10. Also, the pIC50 on PI3Kalpha is 9.00.
Turning to `CCc1ncnc(N2CCN(C)CC2)c1C#Cc1cnc(C)c(NS(=O)(=O)c2ccc(F)cc2)c1` [Example I-65, N-{5-[4-Ethyl-6-(4-methyl-piperazin-1-yl)-pyrimidin-5-ylethynyl]-2-methyl-pyridin-3-yl}-4-fluoro-benzenesulfonamide], the pEC50 with MB453 cells is 6.64; in the experiment with BT474 cells, 6.55; in the experiment with MCF7 cells it was 7.55; in the experiment on U87 cells, 6.28; in the experiment with H460 cells, 6.77. For the same compound, at PI3Kalpha, the pIC50 was 9.05.
As to `Cc1ncc(C#Cc2c(C)ncnc2N2CCOCC2)cc1NS(=O)(=O)c1c(F)cccc1F` [Example I-7, 2,6-Difluoro-N-[2-methyl-5-(4-methyl-6-morpholin-4-yl-pyrimidin-5-ylethynyl)-pyridin-3-yl]-benzenesulfonamide], the pEC50 is 6.84 with MB453 cells; 7.09 in the experiment with BT474 cells; 7.42 in the experiment with MCF7 cells; 6.65 in the experiment with U87 cells; 6.97 with H460 cells. Further, the negative logarithm of the IC50 (pIC50) at PI3Kalpha was 9.10.
Regarding `COCCN1CCN(c2ncnc(C)c2C#Cc2cnc(C)c(NS(=O)(=O)c3ccccc3)c2)CC1` [Example I-57, N-(5-{4-[4-(2-Methoxy-ethyl)-piperazin-1-yl]-6-methyl-pyrimidin-5-ylethynyl}-2-methyl-pyridin-3-yl)-benzenesulfonamide], the negative logarithm of the EC50 (pEC50) with MB453 cells is 6.35; in the experiment on BT474 cells it was 5.89; in the experiment on MCF7 cells it was 8.70; with U87 cells it was 6.47; with H460 cells, 7.09. Besides, the negative logarithm of the IC50 (pIC50) on PI3Kalpha was 9.08.
Regarding `Cc1ncc(C#Cc2c(C)ncnc2N2CCOCC2)cc1NS(=O)(=O)c1ccoc1` [Example I-50, Furan-3-sulfonic acid [2-methyl-5-(4-methyl-6-morpholin-4-yl-pyrimidin-5-ylethynyl)-pyridin-3-yl]-amide], the negative logarithm of the EC50 (pEC50) in the experiment with MB453 cells was 6.62; in the experiment with BT474 cells it was 6.48; in the experiment with MCF7 cells, 7.80; in the experiment with U87 cells it was 6.54; in the experiment on H460 cells, 6.89. Also, on PI3Kalpha, the negative logarithm of the IC50 (pIC50) is 9.00.
With `Cc1ncc(C#Cc2c(C)ncnc2N2CCCCC2)cc1NS(=O)(=O)c1ccc(F)cc1F` [Example I-14, 2,4-Difluoro-N-[2-methyl-5-(4-methyl-6-piperidin-1-yl-pyrimidin-5-ylethynyl)-pyridin-3-yl]-benzenesulfonamide], the pEC50 in the experiment with MB453 cells was 6.35; with BT474 cells, 6.60; in the experiment with MCF7 cells, 6.94; in the experiment with U87 cells it was 6.21; in the experiment with H460 cells it was 6.61. Also, the pIC50 at PI3Kalpha is 9.07.
Consider `CCc1ncnc(N2CCC(O)CC2)c1C#Cc1cnc(C)c(NS(C)(=O)=O)c1` [Example I-46, N-{5-[4-Ethyl-6-(4-hydroxy-piperidin-1-yl)-pyrimidin-5-ylethynyl]-2-methyl-pyridin-3-yl}-methanesulfonamide], for which the negative-log EC50 (pEC50) was 5.90 with BT474 cells, 6.40 in the experiment with MCF7 cells and 6.06 with H460 cells.
With `Cc1ncc(C#Cc2c(C)ncnc2N2CCOCC2)cc1NS(=O)(=O)c1cnn(C)c1` [Example I-51, 1-Methyl-1H-pyrazole-4-sulfonic acid [2-methyl-5-(4-methyl-6-morpholin-4-yl-pyrimidin-5-ylethynyl)-pyridin-3-yl]-amide], the pEC50 is 6.70 in the experiment with MB453 cells; 6.51 with BT474 cells; 7.92 with MCF7 cells; 6.50 in the experiment on U87 cells; 6.71 with H460 cells.
For the compound `CCc1ncnc(N2CCC(OC)CC2)c1C#Cc1cnc(C)c(NS(C)(=O)=O)c1` [Example I-45, N-{5-[4-Ethyl-6-(4-methoxy-piperidin-1-yl)-pyrimidin-5-ylethynyl]-2-methyl-pyridin-3-yl}-methanesulfonamide], the values for the negative logarithm of the EC50 (pEC50) in the experiment with BT474 cells, in the experiment on MCF7 cells and in the experiment with H460 cells were 6.55, 7.21 and 6.85, respectively. In addition, on PI3Kalpha, the negative logarithm of the IC50 (pIC50) is 8.40.
